Experimental data reported in paper PMC6155683, “Pharmacokinetics Studies of 12 Alkaloids in Rat Plasma after Oral Administration of Zuojin and Fan-Zuojin Formulas” (Molecules : A Journal of Synthetic Chemistry and Natural …, 2017).
Like-named read-outs stand apart in the source and are kept apart here.

What was measured:
[1] = Dose modified systemic exposure (AUC0→∞/D, Cmax/D)
Experimental: Because the alkaloids content in ZJ and FZJ were no longer linear with the proportion of CR and EF after extraction process, AUC0→∞/D (ratio of AUC0→∞ and dose) and Cmax/D (ratio of Cmax and dose) were calculated to estimate the dose modified systemic exposure levels of the 12 alkaloids (Table 3). […] Physicochemical properties of these alkaloids had been calculated in silico to predict their human colon adenocarcinoma cell (Caco-2) permeability according to the three-property based rule (3PRule). Polar surface area (PSA), logarithm of the n-octanol/water distribution coefficient (LogD), molecular weight (MW), hydrogen bond donors (HBD), hydrogen bond acceptors (HBA), number of free rotatable bonds (NRB) and molar solubility (S) of the alkaloids were retrieved from SciFinder® (American Chemical Society).

[2] = Two-compartment model fitting of C–T curves (DAS 2.0); format: in vivo, rat
Description: Double peaks in C–T curves were observed repeatedly in the PK study of ZJ and related TCM prescriptions, but explanations to the phenomenon were still ambiguous. Generally, possible reasons for the double peak phenomenon could be summarized as follows: (a) enterohepatic circulation; […] (c) irregular pattern of gastric emptying. […] Moreover, Tmax of the alkaloids after administration of ZJ extract were deferred from that of FZJ administration. […] It probably play a major role in the double peak phenomenon, since the GI motility can affect the drug absorption.

[3] = Stability of analytes in rat plasma under storage conditions; format: physicochemical; conditions: n = 6; for Stability RE, 3 freeze-thaw cycles / Stability RE, 30 days at −20 °C: rat plasma; for Stability RE, processed samples' stability: room temperature 24 h
Experimental: The stabilities of analytes in plasma were assessed by analyzing the QC samples at three concentration levels under the following storage conditions: after three freeze (−20 °C)-thaw (room temperature) cycles; stored at −20 °C for 30 days, and comparing the results with those of freshly prepared QC samples. Stabilities of the processed samples at room temperature for 24 h were also assessed.

[4] = PK study of the 12 alkaloids in rat plasma after oral administration of ZJ and FZJ extract (LC–MS/MS); format: in vivo; conditions: for AUC(0-t) / AUC(0-inf) / Cmax / MRT last / MRT inf / half-life / Tmax / Tsec (time of the secondary peak in C–T curve) / Csec (drug concentration of the secondary peak in C–T curve): rat plasma; for AUC(0-t) / AUC(0-inf) / Cmax / MRT last / MRT inf / half-life / Csec (drug concentration of the secondary peak in C–T curve): mean ± SD, n = 6; for AUC(0-t): read-out: AUC0→t; for AUC(0-inf): read-out: AUC0→∞; for Cmax: read-out: Cmax; for MRT last: read-out: MRT0→t (converted); for MRT inf: read-out: MRT0→∞ (converted); for half-life: read-out: t1/2; for Tmax: read-out: Tmax (converted)
Experimental: The time schedule included 15 time-points and six rats were sampled at each time-point. All the rats were orally administered with ZJ extract (suspended in water) at a dose of 3.38 g/kg body weight (dosages of the 12 alkaloids were shown in Table S4), equivalent to crude drug dose of 12 g/kg body weight. Blood samples were collected from the suborbital vein of the rats at 10, 20, 30, 60, 90, 120, 180, 240, 300, 330, 360, 480, 720, 1440, 2160 min after administration, and centrifuged immediately at 5000 rpm for 10 min. The plasma samples were stored at −20 °C until analysis.
Similarly, the time schedule of other rats included 15 time-points and six rats were orally administered with FZJ extract at a dose of 3.76 g/kg body weight (also equivalent to crude drug dose of 12 g/kg body weight, Table S4). Blood samples were collected and treated as mentioned above in the PK study of ZJ extract.
PK parameters of the 12 alkaloids including AUC0→t, AUC0→∞, mean retention time (MRT0→t, MRT0→∞), and elimination half-life (t1/2) were calculated with non-compartmental method by DAS 2.0 software (Mathematical Pharmacology Professional Committee of China, Shanghai, China). Maximum plasma drug concentration (Cmax) and time to reach the maximum plasma drug concentration (Tmax) were observed directly from the detected C–T data. The results were expressed as arithmetic mean ± standard deviation (SD).

CCCCC=CCCCCCCCc1cc(=O)c2ccccc2n1C [evocarpine]
AUC0→∞/D (ratio of AUC0→∞ and dose) ([1]; oral FZJ extract): 13.16
Cmax/D (ratio of Cmax and dose) ([1]; oral FZJ extract): 2.74
AUC0→∞/D (ratio of AUC0→∞ and dose) ([1]; oral ZJ extract): 35.17
Cmax/D (ratio of Cmax and dose) ([1]; oral ZJ extract): 14.42
AIC (Akaike's information criterion method), two-compartment model fitting ([2]; oral FZJ extract): 27.61 ± 10.527
r^2 (correlation coefficient method), two-compartment model fitting ([2]; oral FZJ extract): 0.740 ± 0.167
AIC (Akaike's information criterion method), two-compartment model fitting ([2]; oral ZJ extract): 78.232 ± 11.393
r^2 (correlation coefficient method), two-compartment model fitting ([2]; oral ZJ extract): 0.734 ± 0.201
Stability RE, 3 freeze-thaw cycles ([3]; high QC concentration): 7.91%
Stability RE, 30 days at −20 °C ([3]; high QC concentration): 6.12%
Stability RE, 3 freeze-thaw cycles ([3]; low QC concentration): −19.16%
Stability RE, 30 days at −20 °C ([3]; low QC concentration): 8.28%
Stability RE, 3 freeze-thaw cycles ([3]; medium QC concentration): 3.44%
Stability RE, 30 days at −20 °C ([3]; medium QC concentration): −14.67%
Stability RE, processed samples' stability ([3]; high QC concentration): 3.83%
Stability RE, processed samples' stability ([3]; low QC concentration): 14.05%
Stability RE, processed samples' stability ([3]; medium QC concentration): −14.47%
AUC(0-t) ([4]; 3.38 g/kg, oral ZJ extract): 55.6 ± 12.4 ng·h/mL
AUC(0-inf) ([4]; 3.38 g/kg, oral ZJ extract): 59 ± 13.3 ng·h/mL
Cmax ([4]; 3.38 g/kg, oral ZJ extract): 24.2 ± 12.9 ng/mL
MRT last ([4]; 3.38 g/kg, oral ZJ extract): 4.19 h
MRT inf ([4]; 3.38 g/kg, oral ZJ extract): 6.52 h
half-life ([4]; 3.38 g/kg, oral ZJ extract): 8.99 ± 6.39 h
Tmax ([4]; 3.38 g/kg, oral ZJ extract): 1 h
AUC(0-t) ([4]; 3.76 g/kg, oral FZJ extract): 17.8 ± 3.99 ng·h/mL
AUC(0-inf) ([4]; 3.76 g/kg, oral FZJ extract): 19.6 ± 4.79 ng·h/mL
Cmax ([4]; 3.76 g/kg, oral FZJ extract): 4.07 ± 0.44 ng/mL
MRT last ([4]; 3.76 g/kg, oral FZJ extract): 7.04 h
MRT inf ([4]; 3.76 g/kg, oral FZJ extract): 9.3 h
half-life ([4]; 3.76 g/kg, oral FZJ extract): 6.91 ± 1 h
Tmax ([4]; 3.76 g/kg, oral FZJ extract): 0.5 h
Tsec (time of the secondary peak in C–T curve) ([4]; oral ZJ extract): 240 min
Csec (drug concentration of the secondary peak in C–T curve) ([4]; oral ZJ extract): 7.36 ± 4.89 ng/mL

COc1cc2c(cc1OC)-c1cc3ccc4c(c3c(=O)n1CC2)OCO4 [8-oxoepiberberine]
AUC0→∞/D (ratio of AUC0→∞ and dose) ([1]; oral ZJ extract): 97.25
Cmax/D (ratio of Cmax and dose) ([1]; oral ZJ extract): 13.92
Stability RE, 3 freeze-thaw cycles ([3]; high QC concentration): −8.93%
Stability RE, 30 days at −20 °C ([3]; high QC concentration): −2.71%
Stability RE, 3 freeze-thaw cycles ([3]; low QC concentration): −14.18%
Stability RE, 30 days at −20 °C ([3]; low QC concentration): −13.41%
Stability RE, 3 freeze-thaw cycles ([3]; medium QC concentration): 0.37%
Stability RE, 30 days at −20 °C ([3]; medium QC concentration): 0.36%
Stability RE, processed samples' stability ([3]; high QC concentration): −7.73%
Stability RE, processed samples' stability ([3]; low QC concentration): −7.14%
Stability RE, processed samples' stability ([3]; medium QC concentration): 9.35%
AUC(0-t) ([4]; 3.38 g/kg, oral ZJ extract): 14.3 ± 2.32 ng·h/mL
AUC(0-inf) ([4]; 3.38 g/kg, oral ZJ extract): 16.6 ± 3.22 ng·h/mL
Cmax ([4]; 3.38 g/kg, oral ZJ extract): 2.38 ± 1.14 ng/mL
MRT last ([4]; 3.38 g/kg, oral ZJ extract): 7.51 h
MRT inf ([4]; 3.38 g/kg, oral ZJ extract): 12.3 h
half-life ([4]; 3.38 g/kg, oral ZJ extract): 9.88 ± 4.57 h
Tmax ([4]; 3.38 g/kg, oral ZJ extract): 1.5 h
plasma concentrations at most time points ([4]; oral FZJ extract): below the LLOQ
Tsec (time of the secondary peak in C–T curve) ([4]; oral ZJ extract): 300 min
Csec (drug concentration of the secondary peak in C–T curve) ([4]; oral ZJ extract): 1.85 ± 0.99 ng/mL

O=C1NCCc2cc3c(cc21)OCO3 [noroxyhydrastinine]
AUC0→∞/D (ratio of AUC0→∞ and dose) ([1]; oral FZJ extract): 268.50
Cmax/D (ratio of Cmax and dose) ([1]; oral FZJ extract): 158.50
AUC0→∞/D (ratio of AUC0→∞ and dose) ([1]; oral ZJ extract): 1687.47
Cmax/D (ratio of Cmax and dose) ([1]; oral ZJ extract): 357.11
AIC (Akaike's information criterion method), two-compartment model fitting ([2]; oral FZJ extract): 16.505 ± 12.486
r^2 (correlation coefficient method), two-compartment model fitting ([2]; oral FZJ extract): 0.802 ± 0.128
AIC (Akaike's information criterion method), two-compartment model fitting ([2]; oral ZJ extract): 118.137 ± 17.623
r^2 (correlation coefficient method), two-compartment model fitting ([2]; oral ZJ extract): 0.313 ± 0.350
Stability RE, 3 freeze-thaw cycles ([3]; high QC concentration): −9.82%
Stability RE, 30 days at −20 °C ([3]; high QC concentration): −12.1%
Stability RE, 3 freeze-thaw cycles ([3]; low QC concentration): −14.7%
Stability RE, 30 days at −20 °C ([3]; low QC concentration): −8.89%
Stability RE, 3 freeze-thaw cycles ([3]; medium QC concentration): 11.57%
Stability RE, 30 days at −20 °C ([3]; medium QC concentration): −2.75%
Stability RE, processed samples' stability ([3]; high QC concentration): −12.23%
Stability RE, processed samples' stability ([3]; low QC concentration): −8.14%
Stability RE, processed samples' stability ([3]; medium QC concentration): −0.19%
AUC(0-t) ([4]; 3.38 g/kg, oral ZJ extract): 133 ± 18.5 ng·h/mL
AUC(0-inf) ([4]; 3.38 g/kg, oral ZJ extract): 140 ± 17.8 ng·h/mL
Cmax ([4]; 3.38 g/kg, oral ZJ extract): 29.6 ± 15.2 ng/mL
MRT last ([4]; 3.38 g/kg, oral ZJ extract): 8.82 h
MRT inf ([4]; 3.38 g/kg, oral ZJ extract): 11 h
half-life ([4]; 3.38 g/kg, oral ZJ extract): 10.7 ± 2.82 h
Tmax ([4]; 3.38 g/kg, oral ZJ extract): 1.5 h
AUC(0-t) ([4]; 3.76 g/kg, oral FZJ extract): 4.95 ± 0.65 ng·h/mL
AUC(0-inf) ([4]; 3.76 g/kg, oral FZJ extract): 5.37 ± 0.73 ng·h/mL
Cmax ([4]; 3.76 g/kg, oral FZJ extract): 3.17 ± 1 ng/mL
MRT last ([4]; 3.76 g/kg, oral FZJ extract): 3.03 h
MRT inf ([4]; 3.76 g/kg, oral FZJ extract): 5.25 h
half-life ([4]; 3.76 g/kg, oral FZJ extract): 4.06 ± 2.93 h
Tmax ([4]; 3.76 g/kg, oral FZJ extract): 0.5 h
Tsec (time of the secondary peak in C–T curve) ([4]; oral ZJ extract): 300 min
Csec (drug concentration of the secondary peak in C–T curve) ([4]; oral ZJ extract): 16.29 ± 8.38 ng/mL
